Source: patent US5047397A, “Linear analogs of atrial natriuretic peptides” (California Biotechnology Inc., priority 1988, dated 1991)
Where a SMILES comes first, the peptide text is derived from it. [ ]: non-standard residue; d: D form. The star is where a group is joined. Acetyl(2-naphthyl) = O=C(Cc1ccc2ccccc2c1)*; Met(O) = CS(=O)CC[C@H](N)C(=O)O; Nle = CCCC[C@H](N)C(=O)O

Biological target: T1, specific ANP receptor sites on BASM or BAE cells (Bos taurus, UniProt P10730)
T1 construct: specific receptor sites on BASM or BAE cells; endogenous in cells; host or cells: cultured BASM and BAE cells
T1 sequence (P10730 42-537): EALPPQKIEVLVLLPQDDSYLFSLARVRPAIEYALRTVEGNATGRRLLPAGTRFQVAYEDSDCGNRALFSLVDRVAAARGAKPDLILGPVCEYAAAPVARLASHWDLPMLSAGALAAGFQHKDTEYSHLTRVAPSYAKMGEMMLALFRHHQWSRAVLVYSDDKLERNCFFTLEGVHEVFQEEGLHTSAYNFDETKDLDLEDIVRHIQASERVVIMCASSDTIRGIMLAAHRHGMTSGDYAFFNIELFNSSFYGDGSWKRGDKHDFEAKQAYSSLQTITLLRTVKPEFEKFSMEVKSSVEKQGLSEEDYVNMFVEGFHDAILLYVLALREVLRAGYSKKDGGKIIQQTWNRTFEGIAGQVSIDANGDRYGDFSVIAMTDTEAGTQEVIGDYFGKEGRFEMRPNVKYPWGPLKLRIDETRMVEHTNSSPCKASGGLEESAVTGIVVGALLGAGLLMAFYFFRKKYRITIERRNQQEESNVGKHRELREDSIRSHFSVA
Test: Competitive displacement receptor binding of (125I)-rANP(126-150) on cultured cells
Parameters: species or system bovine
Conditions: for Ki(app): concentration of unlabeled peptide displacing 50% of maximal binding of 0.5 nM (125I)-rANP(126-150), BASM or BAE cells
Source text: Analogous "competitive displacement" receptor binding assays are considered commonplace in the art for examining specific ligand-receptor interactions.
Assuming these ANP analogs act at one or more ANP receptor sites, then increased receptor affinity should reflect increased biological potency.

Compound	receptor binding / activity as judged by Ki, in words	Ki(app)
CC[C@H](C)[C@H](NC(=O)[C@H](CCCNC(=N)N)NC(=O)[C@H](CC(=O)O)NC(=O)[C@@H](NC(=O)[C@H](CC(C)C)NC(=O)CNC(=O)CNC(=O)Cc1ccc2ccccc2c1)[C@@H](C)CC)C(N)=O [AP512, (2-NA)--G--G--L--I--D--R--I--NH2] ({Acetyl(2-naphthyl)}-GGLIDRI-NH2)	very low, if any, activity	> 0.16 µM
CCCC[C@H](NC(=O)CNC(=O)CNC(=O)Cc1ccc2ccccc2c1)C(=O)N[C@H](C(=O)N[C@@H](CC(=O)O)C(=O)N[C@@H](CCCNC(=N)N)C(=O)N[C@H](C(N)=O)[C@@H](C)CC)[C@@H](C)CC [AP514, (2-NA)--G--G--Nle--I--D--R--I--NH2] ({Acetyl(2-naphthyl)}-GG[Nle]IDRI-NH2)	very low, if any, activity	0.267 µM
CC[C@H](C)[C@H](NC(=O)[C@H](CCCNC(=N)N)NC(=O)[C@H](CC(=O)O)NC(=O)[C@H](CC[S+](C)[O-])NC(=O)[C@H](CCCNC(=N)N)NC(=O)CNC(=O)CNC(=O)Cc1ccc2ccccc2c1)C(N)=O (stereo partly drawn) [AP515, (2-NA)--G--G--R--MSO--D--R--I--NH2] ({Acetyl(2-naphthyl)}-GGR[Met(O)]DRI-NH2)	very low, if any, activity	> 0.4 µM
CC[C@H](C)[C@H](NC(=O)[C@H](CO)NC(=O)[C@H](CC(=O)O)NC(=O)[C@@H](NC(=O)[C@H](CCCNC(=N)N)NC(=O)CNC(=O)CNC(=O)Cc1ccc2ccccc2c1)[C@@H](C)CC)C(N)=O [AP516, (2-NA)--G--G--R--I--D--S--I--NH2] ({Acetyl(2-naphthyl)}-GGRIDSI-NH2)	very low, if any, activity	0.399 µM
CC[C@H](C)[C@H](NC(=O)[C@H](CCCNC(=N)N)NC(=O)[C@H](CCC(=O)O)NC(=O)[C@@H](NC(=O)[C@H](CCCNC(=N)N)NC(=O)CNC(=O)CNC(=O)Cc1ccc2ccccc2c1)[C@@H](C)CC)C(N)=O [AP518, (2-NA)--G--G--R--I--E--R--I--NH2] ({Acetyl(2-naphthyl)}-GGRIERI-NH2)		0.038 µM
CCNC(=O)CNC(=O)[C@@H](NC(=O)[C@H](CCCNC(=N)N)NC(=O)[C@H](CC(=O)O)NC(=O)[C@@H](NC(=O)[C@H](CCCNC(=N)N)NC(=O)CNC(=O)CNC(=O)Cc1ccc2ccccc2c1)[C@@H](C)CC)[C@@H](C)CC [AP524, (2-NA)--G--G--R--I--D--R--I--G--NH-(ethyl)] ({Acetyl(2-naphthyl)}-GGRIDRIG-NHEt)		0.00276 µM

Other lines, results leading:

receptor binding / activity as judged by Ki, in words	Ki(app)	Compound
very low, if any, activity	> 0.4 µM	CC[C@H](C)[C@H](NC(=O)[C@H](CCCNC(=N)N)NC(=O)CNC(=O)CNC(=O)Cc1ccc2ccccc2c1)C(=O)N[C@@H](CC(=O)O)C(=O)N[C@@H](CCCNC(=N)N)C(=O)N1CCC[C@H]1C(N)=O [AP519, (2-NA)--G--G--R--I--D--R--P--NH2] ({Acetyl(2-naphthyl)}-GGRIDRP-NH2)
very low, if any, activity	0.4 µM	CC[C@H](C)[C@H](NC(=O)[C@H](CCCNC(=N)N)NC(=O)[C@H](CC(=O)O)NC(=O)[C@H](Cc1ccccc1)NC(=O)[C@H](CCCNC(=N)N)NC(=O)CNC(=O)CNC(=O)Cc1ccc2ccccc2c1)C(N)=O [AP521, (2-NA)--G--G--R--F--D--R--I--NH2] ({Acetyl(2-naphthyl)}-GGRFDRI-NH2)
	0.023 µM	CC[C@H](C)[C@H](NC(=O)[C@H](CCCNC(=N)N)NC(=O)[C@H](CC(=O)O)NC(=O)[C@@H](NC(=O)[C@H](CCC(N)=O)NC(=O)CNC(=O)CNC(=O)Cc1ccc2ccccc2c1)[C@@H](C)CC)C(N)=O [AP522, (2-NA)--G--G--Q--I--D--R--I--NH2] ({Acetyl(2-naphthyl)}-GGQIDRI-NH2)
	0.0367 µM	CC[C@H](C)[C@H](NC(=O)[C@H](CCCNC(=N)N)NC(=O)[C@H](CC(=O)O)NC(=O)[C@@H](NC(=O)[C@H](CCCCN)NC(=O)CNC(=O)CNC(=O)Cc1ccc2ccccc2c1)[C@@H](C)CC)C(N)=O [AP523, (2-NA)--G--G--K--I--D--R--I--NH2] ({Acetyl(2-naphthyl)}-GGKIDRI-NH2)
